Data as given in US10328077B2 (CELGENE CORPORATION, priority 2016, dated 2019).
Structures can show the parent of a compound that is named as a salt. Where two headings read alike, the source gives them in different places.

Legend:
human LSD-1 = human LSD-1 (Homo sapiens (Human), UniProt O60341); experiment: In vitro enzyme inhibition assay LSD-1 (TR-FRET); format: biochemical
Text: This assay determines the ability of a test compound to inhibit LSD-1 demethylase activity.
The enzymatic assay of LSD-1 activity is based on Time Resolved-Fluorescence Resonance Energy Transfer (TR-FRET) detection.

[1] = tested on: CD11b expression in THP-1 (AML) cells; experiment: LSD-1 CD11b cellular assay (flow cytometry); conditions: Homo sapiens, THP-1, 96 h, read-out: THP-1 IC50
[2] = TR-FRET, H3K4me1-biotin labeled peptide

SMILES | IC50 (human LSD-1; [2]) [nM] | IC50 [1] [nM] | IC50 (human LSD-1) [nM]
Cn1c(N2CCC(N)CC2)nc(-c2ccc(C#N)c(F)c2)c(-c2ccc3c(c2)CNC3=O)c1=O [Example 42, 4-[2-(4-amino-piperidin-1-yl)-1-methyl-6-oxo-5-(1-oxo-2,3-dihydro-1H-isoindol-5-yl)-1,6-dihydro-pyrimidin-4-yl]-2-fluoro-benzonitrile] | < 100 | 100 to 1000 | –
COc1ccc(-c2c(-c3ccc(C#N)cc3)nc(N3CCC(N)CC3)n(C)c2=O)cc1 [Example 2, 4-[2-(4-amino-piperidin-1-yl)-5-(4-methoxy-phenyl)-1-methyl-6-oxo-1,6-dihydro-pyrimidin-4-yl]-benzonitrile] | – | < 100 | –
COc1ccc(-c2c(-c3ccc(C#N)cc3)nc(NC[C@H]3CCNC3)n(C)c2=O)cc1F [Example 44, 4-{5-(3-fluoro-4-methoxy-phenyl)-1-methyl-6-oxo-2-[(3S)-(pyrrolidin-3-ylmethyl)-amino]-1,6-dihydro-pyrimidin-4-yl}-benzonitrile] | < 100 | – | –
COc1ccc(-c2c(-c3ccc(C#N)c(F)c3)nc(N3CC(CN)C3)n(C)c2=O)cc1 [Example 69, 4-[2-(3-aminomethyl-azetidin-1-yl)-5-(4-methoxy-phenyl)-1-methyl-6-oxo-1,6-dihydro-pyrimidin-4-yl]-2-fluoro-benzonitrile] | < 100 | – | –
Cc1ccc(-c2c(-c3ccc(C#N)cc3)nc(N3CCC(N)CC3)n(C)c2=O)cc1 [Example 1, 4-(2-(4-aminopiperidin-1-yl)-1-methyl-6-oxo-5-p-tolyl-1,6-dihydropyrimidin-4-yl)benzonitrile, HCl salt] | – | < 100 | –
COc1ccc(-c2c(-c3ccc(C#N)c(F)c3)nc(N3CCNCC3)n(C)c2=O)cc1F [Example 47, 2-fluoro-4-[5-(3-fluoro-4-methoxy-phenyl)-1-methyl-6-oxo-2-piperazin-1-yl-1,6-dihydro-pyrimidin-4-yl]-benzonitrile] | < 100 | – | –
COc1ccc(-c2c(-c3ccc(C#N)c(F)c3)nc(N3CCC(N)CC3)n(CC(=O)O)c2=O)cc1 [Example 15, [2-(4-amino-piperidin-1-yl)-4-(4-cyano-3-fluoro-phenyl)-5-(4-methoxy-phenyl)-6-oxo-6H-pyrimidin-1-yl]-acetic acid] | < 100 | – | –
Cn1c(N2CCC(N)CC2)nc(-c2ccc(C#N)c(F)c2)c(-c2ccc(C(F)(F)F)nc2)c1=O [Example 23, 4-{2-(4-aminopiperidyl)-1-methyl-6-oxo-5-[6-(trifluoromethyl) (3-pyridyl)] hydropyrimidin-4-yl}-2-fluorobenzenecarbonitrile] | – | < 100 | –
CNC(=O)c1ccc(-c2c(-c3ccc(C#N)cc3)nc(N3CCC(N)CC3)n(C)c2=O)cc1F [Example 40, {4-[2-(4-aminopiperidyl)-6-(4-cyanophenyl)-3-methyl-4-oxo-(3-hydropyrimidin-5-yl)]-2-fluorophenyl}-N-methylcarboxamide] | < 100 | – | –
COc1ccc(-c2c(-c3ccc(Cl)c(F)c3)nc(N3CCC(N)CC3)n(C)c2=O)cc1 [Example 111, 2-(4-amino-piperidin-1-yl)-6-(4-chloro-3-fluoro-phenyl)-5-(4-methoxy-phenyl)-3-methyl-3H-pyrimidin-4-one] | – | 100 to 1000 | –
COc1ccc(-c2c(-c3ccc(C#N)c(F)c3)nc(N3CCC[C@H](N)C3)n(C)c2=O)cc1F [Example 28, 4-[2-((3S)-3-amino-piperidin-1-yl)-5-(3-fluoro-4-methoxy-phenyl)-1-methyl-6-oxo-1,6-dihydro-pyrimidin-4-yl]-2-fluoro-benzonitrile] | < 100 | – | –
COc1ncc(-c2c(-c3ccc(C#N)c(F)c3)nc(N3CCC(N)CC3)n(C)c2=O)cc1F [Example 26, 4-[2-(4-aminopiperidyl)-5-(5-fluoro-6-methoxy(3-5,6-dihydropyridyl))-1-methyl-6-oxohydropyrimidin-4-yl]-2-fluorobenzenecarbonitrile] | < 100 | – | –
COc1ccc(-c2c(-c3ccc(C#N)c(F)c3)nc(N3CCCNCC3)n(C)c2=O)cn1 [Example 61, 4-[2-[1,4]diazepan-1-yl-5-(6-methoxy-pyridin-3-yl)-1-methyl-6-oxo-1,6-dihydro-pyrimidin-4-yl]-2-fluoro benzonitrile] | < 100 | – | –
COc1ccc(-c2c(-c3ccc(C#N)c(F)c3)nc(NC3CCNCC3)n(C)c2=O)cc1 [Example 53, 2-fluoro-4-[5-(4-methoxy-phenyl)-1-methyl-6-oxo-2-(piperidin-4-ylamino)-1,6-dihydro-pyrimidin-4-yl]-benzonitrile] | < 100 | – | –
COc1ccc(-c2c(-c3ccc(C#N)cc3)nc(NC[C@@H]3CCNC3)n(C)c2=O)cc1F [Example 45, 4-{5-(3-fluoro-4-methoxy-phenyl)-1-methyl-6-oxo-2-[(3R)-(pyrrolidin-3-ylmethyl)-amino]-1,6-dihydro-pyrimidin-4-yl}-benzonitrile] | < 100 | – | –
CNC1CCN(c2nc(-c3ccc(C#N)c(F)c3)c(-c3ccc(C)nc3)c(=O)n2C)CC1 [Example 21, 2-fluoro-4-[1-methyl-2-(4-methylamino-piperidin-1-yl)-5-(6-methyl-pyridin-3-yl)-6-oxo-1,6-dihydro-pyrimidin-4-yl]-benzonitrile] | < 100 | – | –
COc1ccc(-c2c(-c3ccc(C#N)cc3)nc(N3CCCNCC3)n(C)c2=O)cn1 [Example 62] | < 100 | – | –
Cn1c(N2CCC(N)CC2)nc(-c2ccc(C#N)cc2)c(-c2ccc3c(cnn3C)c2)c1=O [Example 33, 4-[2-(4-aminopiperidyl)-1-methyl-5-(1-methyl(1H-indazol-5-yl))-6-oxohydropyrimidin-4-yl]benzenecarbonitrile] | – | < 100 | –
Cn1c(N2CCC(N)CC2)nc(-c2ccc(C#N)c(F)c2)c(C#N)c1=O [Example 19, 2-(4-amino-piperidin-1-yl)-4-(4-cyano-3-fluoro-phenyl)-1-methyl-6-oxo-1,6-dihydro-pyrimidine-5-carbonitrile] | < 100 | – | –
COc1ccc(-c2c(-c3ccc(C#N)c(F)c3)nc(N(C)C3CCNCC3)n(C)c2=O)cc1 [Example 55, 2-fluoro-4-[5-(4-methoxy-phenyl)-1-methyl-2-(methyl-piperidin-4-yl-amino)-6-oxo-1,6-dihydro-pyrimidin-4-yl]-benzonitrile] | – | – | < 100

Now from value to compound, other results behind:

IC50 (human LSD-1; [2]) [nM] | IC50 [1] [nM] | SMILES | IC50 (human LSD-1) [nM]
< 100 | < 100 | COc1ccc(-c2c(-c3ccc(C#N)c(F)c3)nc(N3CCC(N)CC3)[nH]c2=O)cc1 [Example 122, 4-[2-(4-aminopiperidin-1-yl)-5-(4-methoxyphenyl)-6-oxo-1H-pyrimidin-4-yl]-2-fluorobenzonitrile] | –
< 100 | < 100 | CNc1ccc(-c2c(-c3ccc(C#N)c(F)c3)nc(N3CCC(N)CC3)n(C)c2=O)cc1 [Example 90, 4-[2-(4-aminopiperidin-1-yl)-1-methyl-5-[4-(methylamino)phenyl]-6-oxopyrimidin-4-yl]-2-fluorobenzonitrile] | –
< 100 | – | Cn1c(N2CCC(N)CC2)nc(-c2ccc(C#N)c(F)c2)c(-c2ccc(F)cc2)c1=O [Example 101, 4-[2-(4-aminopiperidin-1-yl)-5-(4-fluorophenyl)-1-methyl-6-oxopyrimidin-4-yl]-2-fluorobenzonitrile] | –
< 100 | – | CN(C)c1ncc(-c2c(-c3ccc(C#N)c(F)c3)nc(N3CCC(N(C)C)CC3)n(C)c2=O)cn1 [Example 81, 4-[2′-dimethylamino-2-(4-dimethylamino-piperidin-1-yl)-1-methyl-6-oxo-1,6-dihydro-[5,5′]bipyrimidinyl-4-yl]-2-fluoro-benzonitrile] | –
< 100 | – | C#Cc1c(-c2ccc(C#N)c(F)c2)nc(N2CCC(N)CC2)n(C)c1=O [Example 110] | –
< 100 | – | Cn1c(N2CCC(N)CC2)nc(-c2ccc(C#N)c(F)c2)cc1=O [Example 108, 4-[2-(4-aminopiperidin-1-yl)-1-methyl-6-oxopyrimidin-4-yl]-2-fluorobenzonitrile] | –
– | < 100 | Cn1c(N2CCC(N)CC2)nc(-c2ccc(C#N)c(F)c2)c(-c2ccc3c(ccn3C)c2)c1=O [Example 74, 4-[2-(4-amino-piperidin-1-yl)-1-methyl-5-(1-methyl-1H-indol-5-yl)-6-oxo-1,6-dihydro-pyrimidin-4-yl]-2-fluoro-benzonitrile] | –
> 10000 | – | COc1ccc(-c2c(-c3ccccc3C#N)nc(N3CCC(N)CC3)n(C)c2=O)cc1F [Example 119, 2-[2-(4-aminopiperidin-1-yl)-5-(3-fluoro-4-methoxyphenyl)-1-methyl-6-oxopyrimidin-4-yl]benzonitrile] | –
< 100 | – | Cc1ccc(-c2c(-c3ccc(C#N)c(F)c3)nc(N3CCC(N(C)C)CC3)n(C)c2=O)cn1 [Example 82, 4-[2-(4-dimethylamino-piperidin-1-yl)-1-methyl-5-(6-methyl-pyridin-3-yl)-6-oxo-1,6-dihydro-pyrimidin-4-yl]-2-fluoro-benzonitrile] | –
– | < 100 | Cn1c(N2CCC(N)CC2)nc(-c2ccc(C#N)c(F)c2)c(-c2ccc3cc[nH]c3c2)c1=O [Example 75, 4-[2-(4-amino-piperidin-1-yl)-5-(1H-indol-6-yl)-1-methyl-6-oxo-1,6-dihydro-pyrimidin-4-yl]-2-fluoro-benzonitrile] | –
> 10000 | – | Cn1c(N2CCC(N)CC2)nc(-c2ccccc2)c(-c2ccc3c(ccn3C)c2)c1=O [Example 114, 2-(4-amino-piperidin-1-yl)-3-methyl-5-(1-methyl-1H-indol-5-yl)-6-phenyl-3H-pyrimidin-4-one] | –
> 10000 | – | COc1ccc(-c2c(-c3cccc(C#N)c3)nc(N3CCC(N)CC3)n(C)c2=O)cc1F [Example 118, 3-[2-(4-aminopiperidin-1-yl)-5-(3-fluoro-4-methoxyphenyl)-1-methyl-6-oxopyrimidin-4-yl]benzonitrile] | –
100 to 1000 | – | Cn1c(N2CCC(N)CC2)nc(-c2ccc(C#N)c(F)c2)c(C#N)c1=O [Example 121, 2-(4-amino-piperidin-1-yl)-4-(4-cyano-3-fluoro-phenyl)-1-methyl-6-oxo-1,6-dihydro-pyrimidine-5-carbonitrile] | –
